This is an account of results in patent US6486171B2, “Piperidine compounds” (Les Laboratoires Servier, priority 1999, dated 2002).

Counter-ions that a name gives are not always drawn.

Series [1] has as its system marble-burying behaviour of mice. Put plainly: Marble-burying test in mice. Format: in vivo. Conditions: male NMRI mice, 30 minutes' exploration. An excerpt:
This test enables evaluation of the capacity of pharmacological agents to inhibit the spontaneous marble-burying behaviour of mice, the inhibition being predictive of antidepressant and/or anti-impulsive action. Male mice of the NMRI strain (Iffa-Credo, 1'Arbresle, France) weighing from 20 to 25 g on the day of the experiment are placed individually in Macrolon boxes (30×18×19 cm) containing 5 cm of sawdust and covered with a perforated plexiglass plate. Twenty four “tiger's eye” glass marbles are evenly distributed on the sawdust at the periphery of the box. At the end of 30 minutes' free exploration, the animals are removed from the box and the number of buried marbles is counted.

Series [2] relates to aggressiveness in isolated mice. Put plainly: Test of aggressiveness in isolated mice. Format: in vivo. Conditions: male CD mice, treatment 30 minutes before test. An excerpt: This test allows the evaluation of the intraspecies anti-aggressive activity of a product in mice that have been kept in isolation for several months. The test uses male CD mice (Charles River) weighing from 22 to 25 g. On their arrival, the animals are isolated in individual opaque black cages (23×14×13 cm) with a grill lid, and are housed for a prolonged period (approximately six months) in the experimentation room. The selection of aggressive pairs of mice that will be used for an extended period in the study commences after the animals have been isolated for one month. Once or twice per week a mouse from another cage (intruder) is placed in the cage of a (resident) mouse and the two animals are observed to see if they attack one another (sniffing, pursuing, nibbling, biting) during that trial. At the end of the trial (maximum duration 10 minutes), each mouse is isolated again in its own cage. If attacks have occurred, the same pair will be tested again in the next trial; if there have been no attacks, each mouse of that pair will be placed in the presence of another mouse in the subsequent trial. Thus, in the course of successive trials carried out at a rate of 1 or 2 per week, definitive pairs of mice that will be used for the experiments are selected. […] The latent period (in seconds) of the first attack and the number and total duration (in seconds) of the attacks are recorded. […]

The next series has as its target T1, 5-HT1A receptors (Homo sapiens, UniProt P08908).
T1 construct: expressed in transfected cells; host or cells: CHO cells
T1 sequence (P08908 1-422): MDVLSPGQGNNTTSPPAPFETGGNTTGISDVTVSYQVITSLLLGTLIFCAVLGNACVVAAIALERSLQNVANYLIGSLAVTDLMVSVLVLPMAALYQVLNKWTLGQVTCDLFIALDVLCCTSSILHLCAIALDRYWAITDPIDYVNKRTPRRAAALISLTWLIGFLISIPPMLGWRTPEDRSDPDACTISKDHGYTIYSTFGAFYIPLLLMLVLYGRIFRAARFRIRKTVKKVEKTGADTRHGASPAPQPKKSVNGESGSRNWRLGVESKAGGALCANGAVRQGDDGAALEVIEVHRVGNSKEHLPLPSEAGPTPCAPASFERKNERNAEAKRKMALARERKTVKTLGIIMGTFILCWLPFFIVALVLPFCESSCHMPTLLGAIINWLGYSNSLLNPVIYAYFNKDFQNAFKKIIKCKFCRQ
The experiment in a line: Affinity for 5-HT1A receptors, [3H]-8-OH-DPAT competition. Conditions: membranes from CHO cells transfected with 5HT1A receptor, read-out: pKi, 5-HT1A receptor (converted). Type of series: binding. Here is the method: The affinity was determined by competition experiments using [^3H]-8-OH-DPAT (NEN, Les Ulis, France). The membranes, prepared from CHO cells transfected with 5HT1A receptor, were prepared as described in Neuropharmacol., 1997, 36, 451-459. The membranes were incubated in triplicate for two and a half hours at 25° C. with 0.4 nM [^3H]-8-OH-DPAT and cold ligand in a final volume of 1.0 ml. The incubation buffer contains 50 mM HEPES-NaOH (pH 7.4) and 5 mM MgCl2. The non-specific binding is determined using 10 μM 5-HT. At the end of the incubation, the incubation medium is filtered through filters impregnated with 0.1% polyethyleneimine and washed three times with 5 ml of cooled buffer. The radioactivity retained on the filters is determined by liquid scintillation counting. The binding isotherms are analysed by non-linear regression to determine the IC50 values. Those values are converted into a dissociation constant (Ki) using the Cheng-Prusoff equation: […]
wherein L is the concentration of [^3H]-8-OH-DPAT and Kd is the dissociation constant of [^3H]-8-OH-DPAT from the 5HT1A receptor (0.65 nM). The results are expressed in pKi.

The subject of the next series is serotonin level. The experiment in a line: Microdialysis experiment in the rat (frontal cortex). Type of series: in vivo. The following applies: 10 mg/kg subcutaneously, cingulate frontal cortex dialysate. Here is the method: Rats are anaesthetised with pentobarbital (60 mg/kg i.p.). They are placed in a Kopf stereotactic device and the cannula guide is implanted in the cingulate frontal cortex in accordance with the coordinates described in the Paxinos and Watson atlas (1982) as follows: AP=+2.2; L=±0.6; DV=−0.2. The rats are placed in separate cages and are not used in dialysis until 5 days later. […] The probe is perfused at a flow rate of 1 μl/min. with a solution of 147.2 mM NaCl, 4 mM KCl and 2.3 mM CaCl2 adjusted to pH 7.3 with a phosphate buffer (0.1 M). Two hours after implantation, samples are collected every 20 minutes for 4 hours. Three baseline samples are taken before administration of the products to be tested. The rats are left in their individual cages for the whole of the experiment. When the experiment is finished, the rats are decapitated and the brain is removed and frozen in isopentane. […]
The simultaneous quantification of dopamine, norepinephrine and serotonin is carried out as follows: 20 μl dialysis samples are each diluted with 20 μl of mobile phase (NaH2PO4: 75 mM; EDTA: 20 μM; sodium 1-decanesulphonate: 1 mM; methanol: 17.5%; triethylamine: 0.01%; pH: 5.7) and 33 μl samples are analysed by HPLC using a reverse phase column thermostatically maintained at 45° C. and quantified by means of a coulometric detector. […]

A further series concerns the target T2, serotonin reuptake sites (Rattus norvegicus, UniProt P31652).
T2 construct: The membranes are prepared from rat frontal cortex; from tissue; host or cells: rat frontal cortex membranes
The experiment in a line: Affinity for serotonin reuptake sites, [3H]-paroxetine competition. The following applies: rat frontal cortex membranes, read-out: pKi, serotonin reuptake sites (converted). Format: binding. Here is the method: The affinity was determined by competition experiments using [^3H]-paroxetine (NEN, Les Ulis, France). The membranes are prepared from rat frontal cortex and are incubated in triplicate for 2 hours at 25° C. with 1.0 nM [^3H]-paroxetine and cold ligand in a final volume of 0.4 ml. The incubation buffer contains […] TRIS-HCl (pH 7.4), 120 mM NaCl and 5 mM KCl. The non-specific binding is determined using 10 μM citalopram. At the end of the incubation, the incubation medium is filtered and washed three times with 5 ml of cooled buffer. The radioactivity retained on the filters is determined by liquid scintillation counting. The binding isotherms are analysed by non-linear regression to determine the IC50 values. Those values are converted into a dissociation constant (Ki) using the Cheng-Prusoff equation: […]
wherein L is the concentration of [^3H]-paroxetine and Kd is the dissociation constant of [^3H]-paroxetine from the serotonin reuptake site (0.13 nM). The results are expressed in pKi.

T2 sequence (P31652 whole entry): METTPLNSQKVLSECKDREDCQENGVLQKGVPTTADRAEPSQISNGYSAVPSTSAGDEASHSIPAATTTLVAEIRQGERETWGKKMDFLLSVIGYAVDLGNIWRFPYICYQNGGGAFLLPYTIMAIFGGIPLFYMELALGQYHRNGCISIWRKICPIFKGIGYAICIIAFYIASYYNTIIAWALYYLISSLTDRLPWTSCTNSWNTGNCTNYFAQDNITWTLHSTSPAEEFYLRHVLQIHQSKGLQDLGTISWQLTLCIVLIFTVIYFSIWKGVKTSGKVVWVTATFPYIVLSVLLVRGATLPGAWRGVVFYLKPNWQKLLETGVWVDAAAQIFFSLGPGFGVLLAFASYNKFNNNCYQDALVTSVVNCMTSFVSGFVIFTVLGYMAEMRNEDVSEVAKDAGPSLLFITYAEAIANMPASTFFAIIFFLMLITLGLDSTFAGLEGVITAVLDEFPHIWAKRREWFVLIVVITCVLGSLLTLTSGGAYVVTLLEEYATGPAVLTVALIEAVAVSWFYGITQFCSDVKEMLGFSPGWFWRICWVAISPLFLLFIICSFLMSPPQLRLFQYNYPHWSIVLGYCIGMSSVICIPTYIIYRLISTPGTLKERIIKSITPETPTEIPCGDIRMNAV

Turning to `c1ccc2cc(CCN3CCN(c4nccc5ccoc45)CC3)ccc2c1` (as salt: fumarate) [Example 30, 7-{4-[2-(2-Naphthyl)ethyl]-1-piperazinyl}furo[2,3-c]pyridine], the melting point was in the range of 175 to 181 °C.
Consider `c1cc2occc2c(N2CCN(CCc3ccc4c(c3)CCO4)CC2)n1` [Example 11, 4-{4-[2-(2,3-Dihydrobenzofuran-5-yl)ethyl]-1-piperazinyl}furo[3,2-c]pyridine], for which, in series [1], the “Marble-burying in mice, ID50” value came out at 0.94 mg/kg s.c.
The same measure, in the same setting: the same measure for `CNCCC(Oc1ccc(C(F)(F)F)cc1)c1ccccc1` (centres unmarked) [fluoxetine, reference compound]: 8.03 mg/kg s.c.
In the case of `c1ccc2c(CCN3CCC(c4nccc5occc45)CC3)cccc2c1` [Example 7, 4-{1-[2-(1-Naphthyl)ethyl]-4-piperidinyl}furo[3,2-c]pyridine], the “Inhibitory Dose 50, aggressiveness in isolated mice” value in series [2] is reported as “less than 1.5 mg/kg i.p”. Further, the “Marble-burying in mice, ID50” value in series [1] worked out at 1.64 mg/kg s.c. Besides, the Ki on 5-HT1A receptors and on serotonin reuptake sites was less than 31.6 nM in each case. Further, the “increase of the level of serotonin (maximum % of the effect compared with the baseline level defined as 0%)” value in the series with serotonin level is 140.5±15.2%.

A word on the melting point: it is the temperature, or range, at which the solid turns liquid.
